# pIC50: −log10 of the molar value. Read-outs that look alike come from different tables or passages of the source.
# Key:
# [1] = system: INS-1E cells; assay: cells; type: cell-based, rat; details: 5 mM glucose; for 5mMGluc_INS1E SecretionMod IC50/EC50: assay number 8;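 as to all read-outs here: secreted insulin quantified by homogeneous immunoassay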
# [2] = system: endothelial tube formation in co-cultures of ECFCs and ADSCs treated with VEGF; assay: cells; type: cell-based, human
# [3] = system: HeLa cells; assay: cells; type: cell-based;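 as to Hela CellCycMod PI 4N summarized IC50: value tracks stimulation of 4N DNA content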
# [4] = system: DLD-1; assay: cells; type: cell-based
# [5] = system: SW480; assay: cells; type: cell-based
# [6] = system: HCT116; assay: cells; type: cell-based
# [7] = system: HCT116 cells treated with a GSK3β inhibitor; assay: cells; type: cell-based
# [8] = system: Colo320; assay: cells; type: cell-based
# [9] = system: HT-29; assay: cells; type: cell-based
# [10] = system: RKO; assay: cells; type: cell-based
# [11] = system: SNU-C1; assay: cells; type: cell-based
# [12] = system: ECFC/ADSC co-culture cell nuclei number
# [13] = assay number 26, GSK3b inhibitor pretreated
compound,measurement,setting,value
COc1ccc2c(c1OC)C(=O)O[C@@H]2[C@H]1c2cc3c(cc2CCN1C)OCO3 [NCGC00017326-05],5mMGluc_INS1E SecretionMod IC50/EC50,[1],> 33.33 µM
CN(C)CCOC(C)(c1ccccc1)c1ccccn1.O=C(O)CCC(=O)O (centres unmarked) [NCGC00021147-11],5mMGluc_INS1E SecretionMod IC50/EC50,[1],> 33.33 µM
CCN(CC)CCOc1ccc(Cc2ccccc2)cc1 [NCGC00024762-04],5mMGluc_INS1E SecretionMod IC50/EC50,[1],> 33.33 µM
CNCCCCOc1ccccc1Cc1ccccc1 [NCGC00024778-02],5mMGluc_INS1E SecretionMod IC50/EC50,[1],> 33.33 µM
COc1ccccc1N1CCN(CCCCNC(=O)c2ccc(-c3ccc(C(C)=O)cc3)cc2)CC1 [NCGC00025004-04],5mMGluc_INS1E SecretionMod IC50/EC50,[1],> 33.33 µM
C[C@@H](C1=C(CCN(C)C)Cc2ccccc21)c1ccccn1.O=C(O)/C=C\C(=O)O [NCGC00025158-02],5mMGluc_INS1E SecretionMod IC50/EC50,[1],8.4103 µM
CN1C(=O)CC[C@H]1c1cccnc1 [NCGC00093739-13],5mMGluc_INS1E SecretionMod IC50/EC50,[1],> 33.33 µM
COCCCOc1ccnc(C[S+]([O-])c2nc3ccccc3[n-]2)c1C.[Na+] (centres unmarked) [NCGC00159518-05],"IC50/EC50, 5mMGluc_INS1E SecretionMod (assay number 8)",[1],> 33.33 µM
CCc1oc2ccccc2c1C(=O)c1cc(I)c(O)c(I)c1 [NCGC00160408-03],VEGF_ADSC\ECFC Angio CD31 TubeArea IC50/EC50,[2],5.8547 µM
same,Hela CellCycMod PI 2N IC50/EC50,[3],> 10 µM
same,Hela CellCycMod PI 4N IC50/EC50,[3],> 10 µM
same,Hela CellCycMod PI Cell Number IC50/EC50,[3],> 10 µM
same,Hela CellCycMod PI MI IC50/EC50,[3],> 10 µM
same,Hela CellCycMod PI S Phase IC50/EC50,[3],> 10 µM
same,Basal_Viability ATP DLD-1 IC50/EC50,[4],0.003 µM
same,Basal_Viability ATP SW480 IC50/EC50,[5],0.001 µM
same,Basal_Viability ATP HCT116 IC50/EC50,[6],0.003 µM
same,GSK3b inh pretreated_Viability ATP HCT116 IC50/EC50,[7],0.001 µM
same,Basal_Viability ATP Colo 320 IC50/EC50,[8],0.003 µM
same,Basal_Viability ATP HT-29 IC50/EC50,[9],0.001 µM
same,Basal_Viability ATP RKO IC50/EC50,[10],0.003 µM
same,Basal_Viability ATP SNU-C1 IC50/EC50,[11],0.001 µM
same,VEGF_ADSC\ECFC Angio Hoechst NucArea IC50/EC50,[12],> 10 µM
O=C1C(I)=CC(=C(c2cc(I)c(O)c(I)c2)c2ccccc2C(=O)O)C=C1I [NCGC00161636-02],pIC50,[2]; read-out: VEGF_ADSC\ECFC Angio CD31 TubeArea summarized IC50,< 5.00
same,pIC50,[3]; read-out: Hela CellCycMod PI 2N summarized IC50,< 5.00
same,pIC50,[3]; read-out: Hela CellCycMod PI 4N summarized IC50,< 5.00
same,pIC50,[3]; read-out: Hela CellCycMod PI Cell Number summarized IC50,< 5.00
same,pIC50,[3]; read-out: Hela CellCycMod PI MI summarized IC50,< 5.00
same,pIC50,[3]; read-out: Hela CellCycMod PI S Phase summarized IC50,< 5.00
same,pIC50,[4]; read-out: Basal_Viability ATP DLD-1 summarized IC50,7.88
same,pIC50,[5]; read-out: Basal_Viability ATP SW480 summarized IC50,6.95
same,pIC50,[6]; read-out: Basal_Viability ATP HCT116 summarized IC50,6.42
same,pIC50,[7]; read-out: GSK3b inh pretreated_Viability ATP HCT116 summarized IC50,7.27
same,pIC50,[8]; read-out: Basal_Viability ATP Colo 320 summarized IC50,6.51
same,pIC50,[9]; read-out: Basal_Viability ATP HT-29 summarized IC50,5.24
same,pIC50,[10]; read-out: Basal_Viability ATP RKO summarized IC50,7.43
same,pIC50,[11]; read-out: Basal_Viability ATP SNU-C1 summarized IC50,5.43
same,pIC50,[12]; read-out: VEGF_ADSC\ECFC Angio Hoechst NucArea summarized IC50,< 5.00
CO[C@@]12[C@H](COC(N)=O)C3=C(C(=O)C(C)=C(N)C3=O)N1C[C@@H]1N[C@@H]12 [NCGC00163468-05],VEGF_ADSC\ECFC Angio CD31 TubeArea IC50/EC50,[2],0.1019 µM
same,Hela CellCycMod PI 2N IC50/EC50,[3],0.0133 µM
same,Hela CellCycMod PI 4N IC50/EC50,[3],> 10 µM
same,Hela CellCycMod PI Cell Number IC50/EC50,[3],0.07733 µM
same,Hela CellCycMod PI MI IC50/EC50,[3],> 10 µM
same,Hela CellCycMod PI S Phase IC50/EC50,[3],0.1428 µM
same,Basal_Viability ATP DLD-1 IC50/EC50,[4],5.6318 µM
same,Basal_Viability ATP SW480 IC50/EC50,[5],12.0548 µM
same,Basal_Viability ATP HCT116 IC50/EC50,[6],13.6261 µM
same,GSK3b inh pretreated_Viability ATP HCT116 IC50/EC50,[7],> 20 µM
same,Basal_Viability ATP Colo 320 IC50/EC50,[8],12.5546 µM
same,Basal_Viability ATP HT-29 IC50/EC50,[9],2.5705 µM
same,Basal_Viability ATP RKO IC50/EC50,[10],0.9953 µM
same,Basal_Viability ATP SNU-C1 IC50/EC50,[11],8.1272 µM
same,VEGF_ADSC\ECFC Angio Hoechst NucArea IC50/EC50,[12],5.961 µM
CCCCC(CC)CN=C(N)NC(N)=NCCCCCCN=C(N)NC(N)=NCC(CC)CCCC (centres unmarked) [NCGC00178352-06],"IC50/EC50, VEGF_ADSC\ECFC Angio CD31 TubeArea (assay number 2)",[2],0.4078 µM
same,"IC50/EC50, Hela CellCycMod PI 2N (assay number 14)",[3],> 10 µM
same,"IC50/EC50, Hela CellCycMod PI 4N (assay number 16)",[3],> 10 µM
same,"IC50/EC50, Hela CellCycMod PI Cell Number (assay number 18)",[3],0.0186 µM
same,"IC50/EC50, Hela CellCycMod PI MI (assay number 17)",[3],> 10 µM
same,"IC50/EC50, Hela CellCycMod PI S Phase (assay number 15)",[3],> 10 µM
same,"IC50/EC50, Basal_Viability ATP DLD-1 (assay number 23)",[4],0.0197 µM
same,"IC50/EC50, Basal_Viability ATP SW480 (assay number 24)",[5],0.3327 µM
same,"IC50/EC50, Basal_Viability ATP HCT116 (assay number 25)",[6],0.7096 µM
same,"IC50/EC50, GSK3b inh pretreated_Viability ATP HCT116 (assay number 26)",[7],0.3963 µM
same,"IC50/EC50, Basal_Viability ATP Colo 320 (assay number 27)",[8],0.0041 µM
same,"IC50/EC50, Basal_Viability ATP HT-29 (assay number 28)",[9],0.0302 µM
same,"IC50/EC50, Basal_Viability ATP RKO (assay number 29)",[10],0.2228 µM
same,"IC50/EC50, Basal_Viability ATP SNU-C1 (assay number 30)",[11],0.0941 µM
same,"IC50/EC50, VEGF_ADSC\ECFC Angio Hoechst NucArea (assay number 3)",[12],> 10 µM
O=[N+]([O-])c1ccc(Oc2ccc(N=C=S)cc2)cc1 [NCGC00182049-02],VEGF_ADSC\ECFC Angio CD31 TubeArea IC50/EC50,[2],3.7244 µM
same,Hela CellCycMod PI 2N IC50/EC50,"[3]; assay number 14, 2N",> 10 µM
same,Hela CellCycMod PI S Phase IC50/EC50,"[3]; assay number 15, S phase",> 10 µM
same,Hela CellCycMod PI 4N IC50/EC50,"[3]; assay number 16, 4N",> 10 µM
same,Hela CellCycMod PI MI IC50/EC50,"[3]; assay number 17, MI",> 10 µM
same,Hela CellCycMod PI Cell Number IC50/EC50,"[3]; assay number 18, cell number",> 10 µM
same,Basal_Viability ATP DLD-1 IC50/EC50,"[4]; assay number 23, basal",2.102 µM
same,Basal_Viability ATP SW480 IC50/EC50,"[5]; assay number 24, basal",1.634 µM
same,Basal_Viability ATP HCT116 IC50/EC50,"[6]; assay number 25, basal",2.772 µM
same,GSK3b inh pretreated_Viability ATP HCT116 IC50/EC50,[7]; [13],1.472 µM
same,Basal_Viability ATP Colo 320 IC50/EC50,"[8]; assay number 27, basal",1.465 µM
same,Basal_Viability ATP HT-29 IC50/EC50,"[9]; assay number 28, basal",1.0654 µM
same,Basal_Viability ATP RKO IC50/EC50,"[10]; assay number 29, basal",2.341 µM
same,Basal_Viability ATP SNU-C1 IC50/EC50,"[11]; assay number 30, basal",4.3298 µM
same,VEGF_ADSC\ECFC Angio Hoechst NucArea IC50/EC50,[12],> 10 µM
Cl.O[C@@H](CNC[C@H](O)[C@H]1CCc2cc(F)ccc2O1)[C@@H]1CCc2cc(F)ccc2O1 [NCGC00263579-01],VEGF_ADSC\ECFC Angio CD31 TubeArea IC50/EC50,[2],> 10 µM
same,Hela CellCycMod PI 2N IC50/EC50,"[3]; assay number 14, 2N",> 10 µM
same,Hela CellCycMod PI S Phase IC50/EC50,"[3]; assay number 15, S phase",> 10 µM
same,Hela CellCycMod PI 4N IC50/EC50,"[3]; assay number 16, 4N",> 10 µM
same,Hela CellCycMod PI MI IC50/EC50,"[3]; assay number 17, MI",> 10 µM
same,Hela CellCycMod PI Cell Number IC50/EC50,"[3]; assay number 18, cell number",5.565 µM
same,Basal_Viability ATP DLD-1 IC50/EC50,[4]; assay number 23,15.2632 µM
same,Basal_Viability ATP SW480 IC50/EC50,[5]; assay number 24,3.6015 µM
same,Basal_Viability ATP HCT116 IC50/EC50,"[6]; assay number 25, basal",6.4812 µM
same,GSK3b inh pretreated_Viability ATP HCT116 IC50/EC50,[7]; [13],2.3971 µM
same,Basal_Viability ATP Colo 320 IC50/EC50,[8]; assay number 27,> 20 µM
same,Basal_Viability ATP HT-29 IC50/EC50,[9]; assay number 28,4.5046 µM
same,Basal_Viability ATP RKO IC50/EC50,[10]; assay number 29,3.2799 µM
same,Basal_Viability ATP SNU-C1 IC50/EC50,[11]; assay number 30,5.0932 µM
same,VEGF_ADSC\ECFC Angio Hoechst NucArea IC50/EC50,[12],> 10 µM
